Read-outs that look alike come from different tables or passages of the source.
Assays:
[1] = tested on: NCI-H146 human small cell lung carcinoma cells; assay: Cellular efficacy in human tumor cell line (MTS viability assay); type: cell-based; conditions: NCI-H146, 10% human serum, 48 hours
Method: NCI-H146 (ATCC, Manassas, Va.) human small cell lung carcinoma cells were plated 50,000 cells per well in 96-well tissue culture plates in a total volume of 100 μL tissue culture medium supplemented with 10% human serum (Invitrogen, Carlsbad, Calif.) instead of fetal bovine serum and treated with a 2-fold serial dilution of the compounds of interest from 10 μM to 0.020 μM. Each concentration was tested in duplicate at least 3 separate times. The number of viable cells following 48 hours of compound treatment was determined using the CellTiter 96® AQueous non-radioactive cell proliferation MTS assay according to manufacturer's recommendations (Promega Corp., Madison, Wis.).

Bcl-XL protein = Bcl-XL protein (Homo sapiens, UniProt Q07817); assay: Bcl-XL binding affinity, fluorescence polarization with fluorescein-labeled BAD peptide; conditions: Wang's equation, read-out: Target Binding Affinity Ki (Bcl-XL)
Sequence of Bcl-XL protein (Q07817 with tags, fused parts or gaps DEL45-84): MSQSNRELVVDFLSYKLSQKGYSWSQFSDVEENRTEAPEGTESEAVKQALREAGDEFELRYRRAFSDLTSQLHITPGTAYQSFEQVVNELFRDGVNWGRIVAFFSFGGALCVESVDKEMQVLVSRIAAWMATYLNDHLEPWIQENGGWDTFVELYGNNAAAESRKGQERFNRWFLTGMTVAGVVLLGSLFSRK
Method: A mixture comprising 125 μL per well of assay buffer (20 mM phosphate buffer (pH 7.4), 1 mM EDTA, 50 mM NaCl, 0.05% PF-68), 6 nM of Bcl-XL protein (prepared as described in Science 1997, 275, 983-986), 1 nM fluorescein-labeled BAD peptide (prepared in-house) and the DMSO solution of the compound was shaken for 2 minutes and placed in a LJL Analyst (LJL Bio Systems, CA). A negative control (DMSO, 15 nM BAD peptide, assay buffer) and a positive control (DMSO, 1 nM BAD peptide, 6 nM Bcl-XL, assay buffer) were used to determine the range of the assay. Polarization was measured at room temperature using a continuous Fluorescein lamp (excitation 485 nm, emission 530 nm). Percentage of inhibition was determined by (1-((mP value of well-negative control)/range))×100%.

Bcl-2 protein = biological target: T1, Bcl-2 protein (Homo sapiens, UniProt P10415, DELINS35-91DVEENRTEAPEGTESE, form not given); assay: Bcl-2 binding affinity, fluorescence polarization with fluorescein-labeled BAX peptide; conditions: Wang's equation, read-out: Target Binding Affinity Ki (Bcl-2)
T1 construct: fused on or other part: A short piece of the Bcl-xL (Q07817) loop replaces Bcl-2 loop residues 35-91; The C-terminal membrane anchor is absent
T1 sequence (P10415 with tags, fused parts or gaps with the stated changes): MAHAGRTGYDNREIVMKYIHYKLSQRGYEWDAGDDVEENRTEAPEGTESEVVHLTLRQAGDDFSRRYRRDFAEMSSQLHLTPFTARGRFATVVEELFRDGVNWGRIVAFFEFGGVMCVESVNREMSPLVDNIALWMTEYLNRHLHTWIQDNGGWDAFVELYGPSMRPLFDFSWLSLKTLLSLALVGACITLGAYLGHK

[2] = Pharmacokinetic evaluation in rat; type: in vivo; conditions: male, Sprague-Dawley, plasma; for AUC / Cmax: 5 mg/kg, oral; for AUC: Table 3, read-out: Pharmacokinetic area under the plasma concentration Curve (rat) AUC; for Cmax: Table 3, read-out: Pharmacokinetic peak plasma concentration (rat) Cmax; for AUC(0-inf): single 5 mg/kg oral dose, Table 1, read-out: Pharmacokinetic area under the plasma concentration Curve (rat) AUC0-∞
Method: The pharmacokinetic behavior of compounds of this disclosure was determined following a single 2 mg/kg intravenous or 5 mg/kg oral dose in male Sprague-Dawley derived rats (n=3 per group). The compounds were prepared as 2 mg/mL solution in a 10% DMSO in PEG-400 formulation for both oral and intravenous administration. The 1 mL/kg intravenous dose was administered as a slow bolus (about 1-2 minutes) in the jugular vein of a rat under light ether anesthetic. The oral dose was administered by gavage. Serial blood samples were obtained from a tail vein of each rat prior 0.1 (IV only), 0.25, 0.5, 1, 1.5, 2, 3, 4, 6, 8 and 24 hours after dosing. The heparinized samples were thoroughly mixed and placed in an ice bath. Plasma was separated by centrifugation and stored frozen prior to analysis.
The compounds of interest were separated from the plasma using protein precipitation with acetonitrile. A plasma (100-200 μL, sample or spiked standard) aliquot was combined with 50 μL of internal standard (structurally related analog prepared in acetonitrile) and 1 ml acetonitrile in a 96-well polypropylene deep well plate. The plates were vortexed for 30 seconds followed by centrifugation (3500 rpm×15 minutes, 4° C.). In an automated manner, the supernatant was transferred to a clean 96-well plate. The samples were evaporated to near dryness on a Micro-Vap™ under a stream of dry nitrogen over low heat (˜37° C.). The samples were reconstituted vortexing with 0.2 mL 5% DMSO in acetonitrile. A 0.1-0.2 ml aliquot of acetonitrile: 0.1% trifluoroacetic acid (20:80, by volume) was added to each well, followed by an additional 30 second vortexing. The plates were centrifuged (3500 rpm×15 minutes, 4° C.) prior to HPLC-MS/MS analysis. Samples were analyzed simultaneously with spiked plasma standards. All samples from each study were analyzed as a single batch on the LC-MS/MS.
The compounds of interest and the internal standard were separated from each other and co-extracted contaminants on a 50×3 mm Keystone Betasil CN 5 μm column with an acetonitrile: 0.1% trifluoroacetic acid mobile phase (50:50, by volume) at a flow rate of 0.7 ml/min. Analysis was performed on a Sciex API 300™ Biomolecular Mass Analyzer using a heated nebulizer interface. Peak areas of the title compounds and internal standards were determined using the Sciex MacQuan™ software. Calibration curves were derived from peak area ratio (parent drug/internal standard) of the spiked rat plasma standards using least squares linear regression of the ratio versus the theoretical concentration. The methods were generally linear over the range of the standard curve (correlation coefficients >0.99) with an estimated quantitation limit of 0.01 μg/mL. The plasma concentration data for each animal were submitted to multi-exponential curve fitting using WinNonlin. The area under the plasma concentration-time curve from 0 to t hours (time of the last measurable plasma concentration) after dosing (AUC0-t) was calculated using the linear trapezoidal rule for the plasma concentration-time profiles. The residual area extrapolated to infinity, determined as the final measured plasma concentration (Ct) divided by the terminal elimination rate constant (β), was added to AUC0-t to produce the total area under the curve (AUC0-∞). Ki values shown in the tables below were determined using Wang's equation (Wang Z X., An Exact Mathematical Expression For Describing Competitive Binding Of Two Different Ligands To A Protein Molecule. FEBS Lett. 1995; 360:111-4)).

[3] = Table 1, read-out: NCI-H146 Cellular Efficacy EC50
[4] = Table 3, read-out: NCI-H146 Cellular Efficacy H146 EC50

| Compound | EC50 [1, 3] [µM] | EC50 [1, 4] [µM] | Ki (Bcl-XL protein) [µM] | Ki (Bcl-2 protein) [µM] | AUC [2] [µM·h] | Cmax [2] [nM] | AUC(0-inf) [2] [µM·h] |
| --- | --- | --- | --- | --- | --- | --- | --- |
| CN(C)CC[C@H](CSc1ccccc1)Nc1ccc(S(=O)(=O)NC(=O)c2ccc(N3CCN(CC4=C(c5ccc(Cl)cc5)CCCC4)CC3)cc2)cc1S(=O)(=O)C(F)(F)Cl [Example 18, 3-((chloro(difluoro)methyl)sulfonyl)-N-(4-(4-((2-(4-chlorophenyl)cyclohex-1-en-1-yl)methyl)piperazin-1-yl)benzoyl)-4-(((1R)-3-(dimethylamino)-1-((phenylsulfanyl)methyl)propyl)amino)benzenesulfonamide] | 0.0154 | 0.015 | ≤ 0.001 | ≤ 0.001 | 0.609 | 59 | 0.61 |
| CN(C)CC[C@H](CSc1ccccc1)Nc1ccc(S(=O)(=O)NC(=O)c2ccc(N3CCN(CC4=C(c5ccc(Cl)cc5)CCC(C)(C)C4)CC3)cc2)cc1S(=O)(=O)C(F)(F)F [Example 20, N-(4-(4-((2-(4-chlorophenyl)-5,5-dimethyl-1-cyclohex-1-en-1-yl)methyl)piperazin-1-yl)benzoyl)-4-(((1R)-3-(dimethylamino)-1-((phenylsulfanyl)methyl)propyl)amino)-3-((trifluoromethyl)sulfonyl)benzenesulfonamide] | 0.0277 |  | ≤ 0.001 | ≤ 0.001 |  |  | 3.11 |
| O=C(NS(=O)(=O)c1ccc(N[C@H](CCN2CCOCC2)CSc2ccccc2)c(S(=O)(=O)C(F)(F)F)c1)c1ccc(N2CCN(CC3=C(c4ccc(Cl)cc4)CCOC3)CC2)cc1 [Example 21, N-(4-(4-((4-(4-chlorophenyl)-5,6-dihydro-2H-pyran-3-yl)methyl)piperazin-1-yl)benzoyl)-4-(((1R)-3-(morpholin-4-yl)-1-((phenylsulfanyl)methyl)propyl)amino)-3-((trifluoromethyl)sulfonyl)benzenesulfonamide] | 0.0643 |  | ≤ 0.001 | ≤ 0.001 |  |  | 1.81 |
| CC1(C)CCC(CN2CCN(c3ccc(C(=O)NS(=O)(=O)c4ccc(N[C@H](CCN5CCOCC5)CSc5ccccc5)c(S(=O)(=O)C(F)(F)F)c4)cc3)CC2)=C(c2ccc(Cl)cc2)C1 [Example 24, N-(4-(4-((2-(4-chlorophenyl)-4,4-dimethylcyclohex-1-en-1-yl)methyl)piperazin-1-yl)benzoyl)-4-(((1R)-3-(morpholin-4-yl)-1-((phenylsulfanyl)methyl)propyl)amino)-3-((trifluoromethyl)sulfonyl)benzenesulfonamide] | 0.0443 |  | ≤ 0.001 | ≤ 0.001 |  |  | 8.04 |
| CN(C)CC[C@H](CSc1ccccc1)Nc1ccc(S(=O)(=O)NC(=O)c2ccc(N3CCN(CC4=C(c5ccc(Cl)cc5)CCCC4)CC3)cc2)cc1S(=O)(=O)C(F)(F)F [Example 26, N-(4-(4-((2-(4-chlorophenyl)cyclohex-1-en-1-yl)methyl)piperazin-1-yl)benzoyl)-4-(((1R)-3-(dimethylamino)-1-((phenylsulfanyl)methyl)propyl)amino)-3-((trifluoromethyl)sulfonyl)benzenesulfonamide] | 0.0243 | 0.024 | ≤ 0.001 | ≤ 0.001 | 0.803 | 97 | 0.8 |
| O=C(NS(=O)(=O)c1ccc(N[C@H](CCN2CCCC2)CSc2ccccc2)c(S(=O)(=O)C(F)(F)F)c1)c1ccc(N2CCN(CC3=C(c4ccc(Cl)cc4)CCCC3)CC2)cc1 [Example 27, N-(4-(4-((2-(4-chlorophenyl)cyclohex-1-en-1-yl)methyl)piperazin-1-yl)benzoyl)-4-(((1R)-1-((phenylsulfanyl)methyl)-3-(pyrrolidin-1-yl)propyl)amino)-3-((trifluoromethyl)sulfonyl)benzenesulfonamide] | 0.0185 |  | ≤ 0.001 | ≤ 0.001 |  |  | 2.08 |

Continued, values first:

| EC50 [1, 3] [µM] | EC50 [1, 4] [µM] | Ki (Bcl-XL protein) [µM] | Ki (Bcl-2 protein) [µM] | AUC [2] [µM·h] | Cmax [2] [nM] | AUC(0-inf) [2] [µM·h] | Compound |
| --- | --- | --- | --- | --- | --- | --- | --- |
| 0.0158 |  | ≤ 0.001 | ≤ 0.001 |  |  | 7.12 | CC1(C)CCC(c2ccc(Cl)cc2)=C(CN2CCN(c3ccc(C(=O)NS(=O)(=O)c4ccc(N[C@H](CCN5CCOCC5)CSc5ccccc5)c(S(=O)(=O)C(F)(F)Cl)c4)cc3)CC2)C1 [Example 19, 3-((chloro(difluoro)methyl)sulfonyl)-N-(4-(4-((2-(4-chlorophenyl)-5,5-dimethylcyclohex-1-en-1-yl)methyl)piperazin-1-yl)benzoyl)-4-(((1R)-3-(morpholin-4-yl)-1-((phenylsulfanyl)methyl)propyl)amino)benzenesulfonamide] |
| 0.0388 |  | ≤ 0.001 | ≤ 0.001 |  |  | 4.08 | CC(C)N(C)CC[C@H](CSc1ccccc1)Nc1ccc(S(=O)(=O)NC(=O)c2ccc(N3CCN(CC4=C(c5ccc(Cl)cc5)CC(C)(C)CC4)CC3)cc2)cc1S(=O)(=O)C(F)(F)Cl [Example 22, 3-((chloro(difluoro)methyl)sulfonyl)-N-(4-(4-((2-(4-chlorophenyl)-4,4-dimethylcyclohex-1-en-1-yl)methyl)piperazin-1-yl)benzoyl)-4-(((1R)-3-(isopropyl(methyl)amino)-1-((phenylsulfanyl)methyl)propyl)amino)benzenesulfonamide] |
| 0.0528 |  | ≤ 0.001 | ≤ 0.001 |  |  | 3.54 | CC(C)N(C)CC[C@H](CSc1ccccc1)Nc1ccc(S(=O)(=O)NC(=O)c2ccc(N3CCN(CC4=C(c5ccc(Cl)cc5)CCC(C)(C)C4)CC3)cc2)cc1S(=O)(=O)C(F)(F)Cl [Example 23, 3-((chloro(difluoro)methyl)sulfonyl)-N-(4-(4-((2-(4-chlorophenyl)-5,5-dimethylcyclohex-1-en-1-yl)methyl)piperazin-1-yl)benzoyl)-4-(((1R)-3-(isopropyl(methyl)amino)-1-((phenylsulfanyl)methyl)propyl)amino)benzenesulfonamide] |
| 0.0164 |  | ≤ 0.001 | ≤ 0.001 |  |  | 1.67 | CC1(C)CCC(CN2CCN(c3ccc(C(=O)NS(=O)(=O)c4ccc(N[C@H](CCN5C[C@@H]6C[C@H]5CO6)CSc5ccccc5)c(S(=O)(=O)C(F)(F)Cl)c4)cc3)CC2)=C(c2ccc(Cl)cc2)C1 [Example 25, 3-((chloro(difluoro)methyl)sulfonyl)-N-(4-(4-((2-(4-chlorophenyl)-4,4-dimethylcyclohex-1-en-1-yl)methyl)piperazin-1-yl)benzoyl)-4-(((1R)-3-((1S,4S)-2-oxa-5-azabicyclo[2.2.1]hept-5-yl)-1-((phenylsulfanyl)methyl)propyl)amino)benzenesulfonamide] |
